From PubChem BioAssay (NCI)
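Cells were grown in 96-well plates and exposed to each compound for 48 hours at five concentrations; endpoints were interpolated linearly between bracketing concentrations, or set to the highest concentration if not reached. At the TGI there is no net growth.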

Key:
Test in all cases: NCI anticancer screen, dose series, 48 h
UACC-62 melanoma = system: UACC-62 melanoma
CCRF-CEM leukemia = system: CCRF-CEM leukemia
OVCAR-4 ovarian = system: OVCAR-4 ovarian
NCI-H23 lung = system: NCI-H23 lung
RXF 393 renal = system: RXF 393 renal
NCI-H522 lung = system: NCI-H522 lung
SF-539 CNS = system: SF-539 CNS
MOLT-4 leukemia = system: MOLT-4 leukemia
SNB-19 CNS = system: SNB-19 CNS
OVCAR-3 ovarian = system: OVCAR-3 ovarian
RPMI-8226 leukemia = system: RPMI-8226 leukemia
COLO 205 colon = system: COLO 205 colon
HT29 colon = system: HT29 colon
DLD-1 colon = system: DLD-1 colon
DMS 114 small cell lung = system: DMS 114 small cell lung
DMS 273 small cell lung = system: DMS 273 small cell lung
SF-295 CNS = system: SF-295 CNS
NCI-H460 lung = system: NCI-H460 lung
SK-MEL-5 melanoma = system: SK-MEL-5 melanoma
SK-MEL-28 melanoma = system: SK-MEL-28 melanoma
U251 CNS = system: U251 CNS
786-0 renal = system: 786-0 renal
HOP-18 NSCLC = system: HOP-18 NSCLC
M14 melanoma = system: M14 melanoma
A549 NSCLC = system: A549 NSCLC
TK-10 renal = system: TK-10 renal
SNB-75 CNS = system: SNB-75 CNS
SN12C renal = system: SN12C renal
M19-MEL melanoma = system: M19-MEL melanoma
OVCAR-8 ovarian = system: OVCAR-8 ovarian
HCC-2998 colon = system: HCC-2998 colon
XF 498 CNS = system: XF 498 CNS
IGROV1 ovarian = system: IGROV1 ovarian
KM20L2 colon = system: KM20L2 colon
NCI-H226 lung = system: NCI-H226 lung
SF-268 CNS = system: SF-268 CNS
K-562 leukemia = system: K-562 leukemia
SK-OV-3 ovarian = system: SK-OV-3 ovarian
HL-60(TB) leukemia = system: HL-60(TB) leukemia
LOX IMVI melanoma = system: LOX IMVI melanoma
SW-620 colon = system: SW-620 colon
SNB-78 CNS = system: SNB-78 CNS
HCT-116 colon = system: HCT-116 colon
KM12 colon = system: KM12 colon
HOP-62 NSCLC = system: HOP-62 NSCLC
LXFL 529 NSCLC = system: LXFL 529 NSCLC
HOP-92 NSCLC = system: HOP-92 NSCLC
MALME-3M melanoma = system: MALME-3M melanoma
SR leukemia = system: SR leukemia
SK-MEL-2 melanoma = system: SK-MEL-2 melanoma
OVCAR-5 ovarian = system: OVCAR-5 ovarian
HCT-15 colon = system: HCT-15 colon
ACHN renal = system: ACHN renal
CAKI-1 renal = system: CAKI-1 renal
EKVX NSCLC = system: EKVX NSCLC
UACC-257 melanoma = system: UACC-257 melanoma
A498 renal = system: A498 renal

Measured: TGI

COP1(=O)CC2C(Cl)(Cl)C2(C)C1 (configuration not stated)
> 100 µM: UACC-62 melanoma | CCRF-CEM leukemia | OVCAR-4 ovarian | NCI-H23 lung | RXF 393 renal | NCI-H522 lung | SF-539 CNS | MOLT-4 leukemia | SNB-19 CNS | OVCAR-3 ovarian | RPMI-8226 leukemia | COLO 205 colon | HT29 colon | DLD-1 colon | DMS 114 small cell lung | DMS 273 small cell lung | SF-295 CNS | NCI-H460 lung | SK-MEL-5 melanoma | SK-MEL-28 melanoma | U251 CNS | 786-0 renal | HOP-18 NSCLC | M14 melanoma | A549 NSCLC | TK-10 renal | SNB-75 CNS | SN12C renal | M19-MEL melanoma | OVCAR-8 ovarian | HCC-2998 colon | XF 498 CNS | IGROV1 ovarian | KM20L2 colon | NCI-H226 lung | SF-268 CNS | K-562 leukemia | SK-OV-3 ovarian | HL-60(TB) leukemia | LOX IMVI melanoma | SW-620 colon | SNB-78 CNS | HCT-116 colon | KM12 colon | HOP-62 NSCLC | LXFL 529 NSCLC

CC(=O)O[C@H]1C(N(C)C(=O)c2ccccc2)CC[C@]2(C)C3CC[C@@]4(C)C(CC(O)[C@@H]4C(C)N(C)C)[C@@H]3CCC12 (some centres not stated)
> 100 µM: UACC-62 melanoma | CCRF-CEM leukemia | OVCAR-4 ovarian | NCI-H23 lung | NCI-H522 lung | SF-539 CNS | MOLT-4 leukemia | HOP-92 NSCLC | MALME-3M melanoma | SNB-19 CNS | OVCAR-3 ovarian | RPMI-8226 leukemia | COLO 205 colon | SR leukemia | HT29 colon | DLD-1 colon | DMS 114 small cell lung | DMS 273 small cell lung | SF-295 CNS | NCI-H460 lung | SK-MEL-5 melanoma | SK-MEL-2 melanoma | SK-MEL-28 melanoma | OVCAR-5 ovarian | U251 CNS | 786-0 renal | HOP-18 NSCLC | HCT-15 colon | M14 melanoma | A549 NSCLC | TK-10 renal | SNB-75 CNS | ACHN renal | SN12C renal | M19-MEL melanoma | OVCAR-8 ovarian | CAKI-1 renal | HCC-2998 colon | EKVX NSCLC | XF 498 CNS | IGROV1 ovarian | KM20L2 colon | NCI-H226 lung | SF-268 CNS | K-562 leukemia | SK-OV-3 ovarian | HL-60(TB) leukemia | LOX IMVI melanoma | SW-620 colon | SNB-78 CNS | UACC-257 melanoma | HCT-116 colon | KM12 colon | HOP-62 NSCLC | A498 renal | LXFL 529 NSCLC
